Reference: patent US20140213453A1, “PLANT GROWTH REGULATION” (SYNGENTA PARTICIPATIONS AG, priority 2011, published 2014)

How the values were obtained:
Type in all cases: in vivo
[1] = system: Poa annua golf course fairway; assay: Turf study, clipping weights on golf course fairway; conditions: for Clipping weight (grams) per plot, 24-June / Clipping weight (grams) per plot, 10-June / Clipping weight (grams) per plot, 17-June / Clipping weight (grams) per plot, 3-July / Clipping weight (grams) per plot, 4-June: 3 applications on a 4 week schedule; for Clipping weight (grams) per plot, 24-June / Clipping weight (grams) per plot, 10-June / Clipping weight (grams) per plot, 17-June / Clipping weight (grams) per plot, 3-July / Clipping weight (grams) per plot, 4-June / Clipping weight (grams) per plot, Cumulative Clipping total: g ai/ha: TXP 96, CJN 50, TXP + cis-jasmone 72 + 50; for Clipping weight (grams) per plot, 24-June: check 11.95; for Clipping weight (grams) per plot, 10-June: check 12.1; for Clipping weight (grams) per plot, 17-June: check 13.8; for Clipping weight (grams) per plot, 3-July: check 15.7; for Clipping weight (grams) per plot, 4-June: check 21.5; for Clipping weight (grams) per plot, Cumulative Clipping total: total over all rating dates (not all shown), check 194
Method: A study was conducted on Poa annua golf course […], to compare the effects of treatment with cis-jasmone alone, trinexapac-ethyl alone, and combinations of cis-jasmone and trinexapac-ethyl. Clipping weights were measured at regular intervals.

winter rye (Rekrut) = assay: Glasshouse trial, lodging after leaf spray at growth stage 30, winter rye; conditions: untreated check 18.9
Description: (§1) A glasshouse trial was setup to compare growth regulation effects of trinexapac-ethyl, cis-jasmone, and mixtures of trinexapac-ethyl and cis-jasmone at various rates, on summer barley (Pasadena) and winter rye (Rekrut). Each treatment was applied as a spray to the leaves of the plant at plant growth stage 30 (start of stem elongation). Assessments of lodging were made 30 days after application; the results are expressed as percentage lodging in Table 2. [table]

summer barley (Pasadena) = assay: Glasshouse trial, lodging after leaf spray at growth stage 30, summer barley; conditions: for % lodging 30 DAA: summer barley, untreated check 32.2
Description: as §1

barley = assay: Trial in Switzerland, growth regulation (plant height) on barley; conditions: rates g AI/ha: TXP (Moddus EC250) 75, CJN (EC300) 50, TXP + CJN 75 + 50, untreated check 89
Description: A trial was setup in Switzerland to compare growth regulation effects of trinexapac-ethyl, cis-jasmone, and mixtures of trinexapac-ethyl and cis-jasmone on barley. Assessments of plant height were made 21 days after application.

[2] = Treatment 2: TXP (Moddus) 200 g AI/ha
[3] = Treatment 3: TXP (Moddus) 100 g AI/ha

| SMILES | Clipping weight (grams) per plot, 24-June [1] | Clipping weight (grams) per plot, 10-June [1] | Clipping weight (grams) per plot, 17-June [1] | Clipping weight (grams) per plot, 3-July [1] | Clipping weight (grams) per plot, 4-June [1] | effect on clipping weights, in words ([1]; Poa annua turf, compared to the untreated control) | Clipping weight (grams) per plot, Cumulative Clipping total [1] | % lodging 30 DAA (winter rye (Rekrut); Treatment 4: CJN 300 g AI/ha) | % lodging 30 DAA (winter rye (Rekrut); Treatment 5: CJN 150 g AI/ha) | % lodging 30 DAA (summer barley (Pasadena); Treatment 4: CJN 300 g AI/ha) | % lodging 30 DAA (summer barley (Pasadena); Treatment 5: CJN 150 g AI/ha) | effect on lodging, in words (summer barley (Pasadena); text summary for summer barley and winter rye, cis-jasmone treatments 4 and 5 compared to treatment 1 (untreated)) | Plant height (cm) 21DAA (barley) | % lodging 30 DAA (winter rye (Rekrut); [2]) | % lodging 30 DAA (winter rye (Rekrut); [3]) | % lodging 30 DAA (summer barley (Pasadena); [2]) | % lodging 30 DAA (summer barley (Pasadena); [3]) |
| --- | --- | --- | --- | --- | --- | --- | --- | --- | --- | --- | --- | --- | --- | --- | --- | --- | --- |
| CC/C=C\CC1=C(C)CCC1=O [CJN, cis-jasmone] | 14.7 a grams | 12.8 a grams | 17.69 a grams | 19.2 a grams | 21.7 a grams | increased clipping weights | 213.5 a grams | 23.3% | 30.0% | 60.0% | 70.0% | significantly increases lodging | 90 cm | – | – | – | – |
| CCOC(=O)C1CC(=O)C(=C(O)C2CC2)C(=O)C1 (stereo not drawn) [TXP, trinexapac-ethyl, reference compound] | 10.71 grams | 9.27 d grams | 11.35 grams | 18.2 a grams | 18.1 grams | – | 173 def grams | – | – | – | – | – | 90 cm | 0.0% | 6.7% | 6.7% | 10.0% |
